One experiment deals with Cysteinyl leukotriene receptor (Homo sapiens) (UniProt Q9Y271+Q9NS75). The experiment can be described thus: In vivo inhibition of LTD4-induced bronchoconstriction in anesthetized guinea pig. The conditions noted are these: Cavia porcellus; target entry is the homologue from another species. In kind it is functional, organism-based.
In turn, `CCCCCc1ccc(/C=C/C(=O)Nc2cccc3c2OC(c2nnn[nH]2)CO3)cc1` (configuration not stated) came in with an ID50 of 0.33 mg/kg.
`CCCCCc1ccc(/C=C/C(=O)Nc2ccccc2OCC(=O)O)cc1` displayed an ID50 of 4.2 mg/kg.
Same read-out and setting: the result for `CCCCCC#CCOc1ccc(C(=O)Nc2cccc3c2OC(c2nnn[nH]2)CO3)cc1` (configuration not stated) reads 0.0064 mg/kg; that for `CCCCCc1ccc(/C=C/C(=O)Nc2cccc3c2OC(C(=O)O)CO3)cc1` (configuration not stated), 0.22 mg/kg.
As for `CCCCCC/C=C/COc1ccc(C(=O)Nc2cccc3c2OC(c2nnn[nH]2)CO3)cc1` (configuration not stated), the ID50 was determined as 0.0041 mg/kg.
Same read-out and setting: the result for `CCCCCc1ccc(/C=C/C(=O)Nc2ccccc2C(=O)O)cc1` reads 4.5 mg/kg; that for `CCCC/C=C/COc1ccc(C(=O)Nc2cccc3c2OC(c2nnn[nH]2)CO3)cc1` (configuration not stated), 0.0055 mg/kg.
In turn, `CCC/C=C/COc1ccc(C(=O)Nc2cccc3c2OC(c2nnn[nH]2)CO3)cc1` (configuration not stated) came in with an ID50 of 0.0135 mg/kg.
The same measure, in the same setting: under `CCCCCC#CCOc1ccc(C(=O)Nc2cccc3c(=O)cc(-c4nn[nH]n4)oc23)cc1` stands 0.0011 mg/kg; under `CCCCCc1ccc(/C=C/C(=O)Nc2cccc3c(=O)cc(C(=O)O)oc23)cc1`, 0.32 mg/kg; under `CCCC/C=C/COc1ccc(C(=O)Nc2cccc3c(=O)cc(-c4nn[nH]n4)oc23)cc1`, 0.0011 mg/kg.

Another experiment concerns the target T1, Cysteinyl leukotriene receptor (Homo sapiens, UniProt Q9Y271+Q9NS75).
T1 sequence (Q9Y271 whole entry): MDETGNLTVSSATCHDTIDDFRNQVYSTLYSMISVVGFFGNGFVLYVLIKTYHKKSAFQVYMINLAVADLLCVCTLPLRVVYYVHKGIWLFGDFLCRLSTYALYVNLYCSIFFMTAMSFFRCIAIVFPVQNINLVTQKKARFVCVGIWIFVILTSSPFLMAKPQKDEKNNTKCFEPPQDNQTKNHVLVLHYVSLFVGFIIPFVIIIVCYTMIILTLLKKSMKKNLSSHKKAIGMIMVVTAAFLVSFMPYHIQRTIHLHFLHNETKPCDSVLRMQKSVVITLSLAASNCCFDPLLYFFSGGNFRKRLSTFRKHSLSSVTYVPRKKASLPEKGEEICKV
T1 sequence (Q9NS75 whole entry): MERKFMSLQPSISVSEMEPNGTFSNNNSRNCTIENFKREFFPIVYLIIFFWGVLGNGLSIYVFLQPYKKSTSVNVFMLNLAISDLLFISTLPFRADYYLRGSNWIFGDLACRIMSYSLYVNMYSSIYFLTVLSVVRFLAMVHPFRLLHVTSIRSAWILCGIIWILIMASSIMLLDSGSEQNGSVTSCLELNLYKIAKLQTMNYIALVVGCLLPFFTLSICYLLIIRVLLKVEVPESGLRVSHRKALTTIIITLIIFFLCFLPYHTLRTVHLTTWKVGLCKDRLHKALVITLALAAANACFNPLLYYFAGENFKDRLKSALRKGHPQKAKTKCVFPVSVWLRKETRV
Briefly: Inhibition of LTC4 induced smooth muscle contraction of guinea pig ileum. In kind it is functional, tissue-based, Cavia porcellus. The conditions noted are these: target entry is the homologue from another species.
On to `CCCCCc1ccc(/C=C/C(=O)Nc2cccc3c2OC(c2nnn[nH]2)CO3)cc1` (configuration not stated), for which the half-maximal inhibitory concentration (IC50) worked out at 370 nM.
The compound `CCCCCCCOc1ccc(C(=O)Nc2cccc3c(=O)cc(-c4nn[nH]n4)oc23)cc1` gave a concentration for half-maximal inhibition (IC50) of 0.5 nM.
The same measure, in the same setting: under `CCCCCCCCOc1ccc(C(=O)Nc2cccc3c(=O)cc(-c4nn[nH]n4)oc23)cc1` stands 5.5 nM; under `CCCCCc1ccc(/C=C/C(=O)Nc2ccccc2OCC(=O)O)cc1`, 9000 nM; under `CCCCc1ccc(/C=C/C(=O)Nc2cccc3c(=O)cc(-c4nn[nH]n4)oc23)cc1`, 34 nM.
For the compound `CCCCCC#CCOc1ccc(C(=O)Nc2cccc3c2OC(c2nnn[nH]2)CO3)cc1` (configuration not stated), the IC50 was found to be 0.67 nM.
In turn, `CCCCCCCCc1ccc(C(=O)Nc2cccc3c(=O)cc(-c4nn[nH]n4)oc23)cc1` showed an IC50 of 5.5 nM.
The same measure, in the same setting: the result for `CCCCCc1ccc(/C=C/C(=O)Nc2ccccc2CC(=O)O)cc1` reads 20000 nM; that for `O=C(Nc1cccc2c1OC(c1nnn[nH]1)CO2)c1ccc(OCCCc2ccccc2)cc1` (configuration not stated), 20 nM.
The same measure, in the same setting: under `CCCCOc1ccc(C(=O)Nc2cccc3c2OC(c2nnn[nH]2)CO3)cc1` (configuration not stated) stands 220 nM; under `CCCCCCCCCc1ccc(C(=O)Nc2cccc3c2OC(c2nnn[nH]2)CO3)cc1` (configuration not stated), 160 nM; under `CCCCCOc1cccc(C(=O)Nc2cccc3c2OC(c2nnn[nH]2)CO3)c1` (configuration not stated), 5000 nM.
Same read-out and setting: under `CCCCCc1ccc(/C=C/C(=O)Nc2cccc3c2OC(C(=O)O)CO3)cc1` (configuration not stated) stands 830 nM; under `CCCCCCCCc1ccc(C(=O)Nc2cccc3c2OC(c2nnn[nH]2)CO3)cc1` (configuration not stated), 100 nM; under `CCCCCOc1ccc(/C=C/C(=O)Nc2cccc3c2OC(c2nnn[nH]2)CO3)cc1` (configuration not stated), 120 nM.
`CCCCc1ccc(C(=O)Nc2cccc3c2OC(c2nnn[nH]2)CO3)cc1` (configuration not stated) showed a concentration for half-maximal inhibition (IC50) of 1500 nM.
Still for that read-out and setting: under `CCCCCC/C=C/COc1ccc(C(=O)Nc2cccc3c2OC(c2nnn[nH]2)CO3)cc1` (configuration not stated) stands 5.2 nM; under `CCCCCc1ccc(/C=C/C(=O)Nc2ccccc2C(=O)O)cc1`, 14000 nM; under `CCCC/C=C/COc1ccc(C(=O)Nc2cccc3c2OC(c2nnn[nH]2)CO3)cc1` (configuration not stated), 0.47 nM.
As for `CCCCCCc1ccc(C(=O)Nc2cccc3c2OC(c2nnn[nH]2)CO3)cc1` (configuration not stated), the concentration for half-maximal inhibition (IC50) is on record as 210 nM.
Same read-out and setting: the result for `CCCCCCc1ccc(/C=C/C(=O)Nc2cccc3c(=O)cc(-c4nn[nH]n4)oc23)cc1` reads 32 nM; that for `CCCCCc1ccccc1C(=O)Nc1cccc2c1OC(c1nnn[nH]1)CO2` (configuration not stated), 40000 nM; that for `CCCCCCOc1ccc(/C=C/C(=O)Nc2cccc3c(=O)cc(-c4nn[nH]n4)oc23)cc1`, 18 nM.
The same measure, in the same setting: the result for `CCCCCCCCCCc1ccc(C(=O)Nc2cccc3c2OC(c2nnn[nH]2)CO3)cc1` (configuration not stated) reads 500 nM.
On the same count and under the same terms, under `CCCCCCOc1ccc(C(=O)Nc2cccc3c2OC(c2nnn[nH]2)CO3)cc1` (configuration not stated) stands 13 nM.
On to `CCCc1ccc(/C=C/C(=O)Nc2cccc3c2OC(c2nnn[nH]2)CO3)cc1` (configuration not stated), for which the IC50 is recorded as 490 nM.
Same read-out and setting: under `CCC/C=C/COc1ccc(C(=O)Nc2cccc3c2OC(c2nnn[nH]2)CO3)cc1` (configuration not stated) stands 4.3 nM.
Still for that read-out and setting: the result for `CCCCCc1ccccc1/C=C/C(=O)Nc1cccc2c1OC(c1nnn[nH]1)CO2` (configuration not stated) reads 2150 nM; that for `CCCCCCCCOc1ccc(/C=C/C(=O)Nc2cccc3c2OC(c2nnn[nH]2)CO3)cc1` (configuration not stated), 215 nM.
`CC/C=C/COc1ccc(C(=O)Nc2cccc3c2OC(c2nnn[nH]2)CO3)cc1` (configuration not stated) came in with an IC50 of 150 nM.
The same measure, in the same setting: the result for `CCCCOc1ccc(/C=C/C(=O)Nc2cccc3c2OC(c2nnn[nH]2)CO3)cc1` (configuration not stated) reads 120 nM; that for `CCCCCCCCCOc1ccc(C(=O)Nc2cccc3c2OC(c2nnn[nH]2)CO3)cc1` (configuration not stated), 20 nM; that for `CCCCCc1ccc(/C=C/C(=O)Nc2cccc3ccc(-c4nn[nH]n4)cc23)cc1`, 300 nM.
On the same count and under the same terms, the result for `CCCCCC#CCOc1ccc(C(=O)Nc2cccc3c(=O)cc(-c4nn[nH]n4)oc23)cc1` reads 0.14 nM; that for `O=C(Nc1cccc2c(=O)cc(-c3nn[nH]n3)oc12)c1ccc(OCCCc2ccccc2)cc1`, 0.96 nM; that for `CCCCCCOc1ccc(C(=O)Nc2cccc3c(=O)cc(-c4nn[nH]n4)oc23)cc1`, 0.86 nM.
`CCCCCOc1ccc(C(=O)Nc2cccc3c2OC(c2nnn[nH]2)CO3)cc1` (configuration not stated) registered a half-maximal inhibitory concentration (IC50) of 100 nM.
Still for that read-out and setting: the result for `CCCCCCCc1ccc(C(=O)Nc2cccc3c2OC(c2nnn[nH]2)CO3)cc1` (configuration not stated) reads 70 nM; that for `CCCCCCc1ccc(/C=C/C(=O)Nc2cccc3c2OC(c2nnn[nH]2)CO3)cc1` (configuration not stated), 140 nM; that for `CCCCCc1ccc(/C=C/C(=O)Nc2cccc3cc(-c4nn[nH]n4)oc23)cc1`, 3100 nM.
Still for that read-out and setting: the result for `CCCCCc1ccc(/C=C/C(=O)Nc2cccc3ccc(-c4nn[nH]n4)nc23)cc1` reads 1000 nM; that for `CCCCCCOc1ccc(/C=C/C(=O)Nc2cccc3c2OC(c2nnn[nH]2)CO3)cc1` (configuration not stated), 21 nM.
Compound `CCCCCCCCCc1ccc(/C=C/C(=O)Nc2cccc3c2OC(c2nnn[nH]2)CO3)cc1` (configuration not stated) returned a 50% inhibitory concentration (IC50) of 3200 nM.
Same read-out and setting: under `CCCCCCCCCCc1ccc(/C=C/C(=O)Nc2cccc3c2OC(c2nnn[nH]2)CO3)cc1` (configuration not stated) stands 1100 nM.
The same measure, in the same setting: the result for `CCCCCCCc1ccc(/C=C/C(=O)Nc2cccc3c2OC(c2nnn[nH]2)CO3)cc1` (configuration not stated) reads 350 nM.
Still for that read-out and setting: under `CCCOc1ccc(C(=O)Nc2cccc3c2OC(c2nnn[nH]2)CO3)cc1` (configuration not stated) stands 2200 nM; under `CCCCCOc1ccccc1C(=O)Nc1cccc2c1OC(c1nnn[nH]1)CO2` (configuration not stated), 9400 nM.
`CCCCCCCOc1ccc(/C=C/C(=O)Nc2cccc3c2OC(c2nnn[nH]2)CO3)cc1` (configuration not stated) showed an IC50 of 88 nM.
Same read-out and setting: under `CCC/C=C/COc1ccc(C(=O)Nc2cccc3c(=O)cc(-c4nn[nH]n4)oc23)cc1` stands 1.5 nM; under `CCCCCc1ccc(/C=C/C(=O)Nc2cccc3c(=O)cc(C(=O)O)oc23)cc1`, 240 nM; under `CCCCOc1ccc(C(=O)Nc2cccc3c(=O)cc(-c4nn[nH]n4)oc23)cc1`, 5 nM.
In the case of `CCCCCc1ccc(C(=O)Nc2cccc3c(=O)cc(-c4nn[nH]n4)oc23)cc1`, the IC50 worked out at 180 nM.
On the same count and under the same terms, under `CCCCc1ccc(/C=C/C(=O)Nc2cccc3c2OC(c2nnn[nH]2)CO3)cc1` (configuration not stated) stands 220 nM; under `CCCCCc1ccc(/C=C/C(=O)Nc2cccc3c2OC(c2nnn[nH]2)C3)cc1` (configuration not stated), 6900 nM; under `CCCCCCCc1ccc(/C=C/C(=O)Nc2cccc3c(=O)cc(-c4nn[nH]n4)oc23)cc1`, 100 nM.
The same measure, in the same setting: under `CCCCCCCCOc1ccc(C(=O)Nc2cccc3c2OC(c2nnn[nH]2)CO3)cc1` (configuration not stated) stands 14 nM; under `CCCC/C=C/COc1ccc(C(=O)Nc2cccc3c(=O)cc(-c4nn[nH]n4)oc23)cc1`, 0.031 nM; under `CCCCCOc1cccc(/C=C/C(=O)Nc2cccc3c2OC(c2nnn[nH]2)CO3)c1` (configuration not stated), 150 nM.
The compound `O=C(Nc1cccc2c1OC(c1nnn[nH]1)CO2)c1ccc(OCCCCCc2ccccc2)cc1` (configuration not stated) had an IC50 of 11 nM.
`CCCCCCCc1ccc(C(=O)Nc2cccc3c(=O)cc(-c4nn[nH]n4)oc23)cc1` showed an IC50 of 4.2 nM.
Compound `CCCCCCCOc1ccc(/C=C/C(=O)Nc2cccc3c(=O)cc(-c4nn[nH]n4)oc23)cc1` yielded a 50% inhibitory concentration (IC50) of 140 nM.
`CCCOc1ccc(/C=C/C(=O)Nc2cccc3c2OC(c2nnn[nH]2)CO3)cc1` (configuration not stated) returned a half-inhibitory concentration (IC50) of 660 nM.
Turning to `CCCCCCCCc1ccc(/C=C/C(=O)Nc2cccc3c2OC(c2nnn[nH]2)CO3)cc1` (configuration not stated), the IC50 came to 580 nM.
`CCCCCCCCCCOc1ccc(C(=O)Nc2cccc3c2OC(c2nnn[nH]2)CO3)cc1` (configuration not stated) returned an IC50 of 300 nM.
Still for that read-out and setting: the result for `O=C(Nc1cccc2c1OC(c1nnn[nH]1)CO2)c1ccc(OCCc2ccccc2)cc1` (configuration not stated) reads 62 nM.
The compound `CCCCCOc1ccc(C(=O)Nc2cccc3c(=O)cc(-c4nn[nH]n4)oc23)cc1` returned a half-inhibitory concentration (IC50) of 53 nM.
As for `CCCCCc1ccc(C(=O)Nc2cccc3c2OC(c2nnn[nH]2)CO3)cc1` (configuration not stated), the half-maximal inhibitory concentration (IC50) was found to be 2600 nM.
`CCCCCCCCCc1ccc(C(=O)Nc2cccc3c(=O)cc(-c4nn[nH]n4)oc23)cc1` had an IC50 of 7 nM.
The same measure, in the same setting: under `CCCCCCCCCOc1ccc(C(=O)Nc2cccc3c(=O)cc(-c4nn[nH]n4)oc23)cc1` stands 7.4 nM; under `CCCCCCc1ccc(C(=O)Nc2cccc3c(=O)cc(-c4nn[nH]n4)oc23)cc1`, 15 nM; under `CCCCCOc1ccccc1/C=C/C(=O)Nc1cccc2c1OC(c1nnn[nH]1)CO2` (configuration not stated), 2300 nM.

The values above are taken from ChEMBL document CHEMBL1123967, “New potent antagonists of leukotrienes C4 and D4. 1. Synthesis and structure-activity relationships” (J Med Chem, 1988).
